The source of these data is patent publication US11338004B2, “Composition for preventing or treating cranial nerve disease comprising fomes fomentarius extract, fraction thereof, or compound isolated therefrom as active ingredient” (priority 2015, dated 2022).

The test system of one experiment is IL-1β. Description: IL-1β in LPS-treated BV2 cells. It counts as cell-based, mouse. Also noted: unit not given here. As to the method: (§1) A mouse BV2 cell line was stored and maintained in a humidified incubator at 37° C. under a 5% CO2 condition using a DMEM culture medium supplemented with 10% FBS, 100 U/ml of penicillin and 100 μg/ml of streptomycin, was trypsinized, and was subcultured.
(§2) BV2 cells were placed in a 6-well plate at 7.5×10^5 cells/well, and stabilized at 37° C. and 5.0% CO2 for 12 hours. After that, LPS and the Fomes fomentarius CHCl3 fractions, the nonadecanone (2-Nonadecanone) or the docosenol (cis-13-Docosenol) compounds were placed according to groups and were incubated for 1 hour. The cell culture was collected and used for cytokine analysis. All the cell culture was removed, and then 1 ml of dPBS was dispensed to each well to wash and remove the wells. 200 μl of the lysis buffer was dispensed per well and the cells attached to the bottom of the well were removed with a cell scriper, and then were slowly mixed and reacted for […] on ice at 4° C. The cells were removed with a scriper again and all the lysis solution was collected. The collected lysis solution was centrifuged at 15,000 rpm for 15 minutes at 4° C. so that only the supernatant was collected. In order to plot standard curves for protein quantification, a standard BSA solution ([…]) and a dilution were prepared in which bradford solution and D.W. were diluted with 4:1. After the bradford dilution was dispensed in each 200 μl to 96-well, the standard BSA solution and the cell lysis supernatant were dispersed in a volume of 10 μl per well, and then they were mixed by pipetting. After 10 minutes, the protein was quantitated by measuring the absorbance at 595 nm in a reader. The subsequent procedures were carried out in the same manner as in the quantitative analysis of the protein of Example 3-3.

The test system of another experiment is IL-6. Put plainly: IL-6 in LPS-treated BV2 cells. The experiment is classed as cell-based, mouse. Also noted: unit not given here. As to the method: as §1, §2
The next experiment addresses AChE (Homo sapiens, UniProt P22303). Put plainly: Acetylcholinesterase inhibitory activity. As to conditions: read-out: acetylcholinesterase inhibitory activity (%). The experiment is classed as biochemical. The procedure:
AChE and acetylthocholine iodine (ATC) were dissolved in 100 mM phosphate buffer (pH 8.0) to prepare 0.25 U/mL and 75 mM, respectively. […] 2.8 mL of phosphate buffer (100 mM, pH 8.0), 30 μL of AChE (0.25 U/mL), and 100 μL of DTNB were added to 30 μL of the extract, and were mixed. Then, the mixture was preincubated at 37° C. for 10 minutes. Then, 30 μL of substrate ATC was added thereto and was reacted at 37° C. for 3 minutes, and then the absorbance was measured at 412 nm. As a control group, 30 μL of 100 mM phosphate buffer (pH 8.0) was added instead of the extract, and then was measured.

For the next experiment, the target named is xanthine oxidase (Homo sapiens, UniProt P47989). Description: Xanthine oxidase inhibitory activity. The experiment is classed as biochemical. As to conditions: for inhibition at 10 µg/mL: 10 μg/mL; for inhibition at 20 µg/mL: 20 μg/mL; for inhibition at 40 µg/mL: 40 μg/mL; for inhibition at 80 µg/mL: 80 μg/mL; for inhibition at 160 µg/mL: 160 μg/mL; for inhibition at 320 µg/mL: 320 μg/mL; for inhibition at 640 µg/mL: 640 μg/mL. The procedure:
0.2 ml of the substrate solution in which 2 mM xanthine was dissolved was added to 0.1 ml of a sample solution and 0.6 ml of 0.1 M potassium phosphate buffer at pH 7.5, and 0.1 ml of 0.2 unit/ml xanthine oxidase was added thereto, followed by reaction at 37° C. for 5 minutes. Then, 1 ml of 1N HCl was added to terminate the reaction, and then the absorbance of the uric acid produced in the reaction solution was measured at 292 nm. The inhibitory activity of xanthine oxidase was shown by the absorbance reduction rate of the addition group and the non-addition group of the sample solution.
Xanthine oxidase acts as a rate-limiting enzyme in the terminal oxidation of all purines and is an enzyme that acts as a source of oxidizing agents such as superoxide radicals and hydrogen peroxide. The superoxide anion inhibition by xanthine/xanthine oxidase enzymes is shown by superoxide anion scavenging activity and xanthine oxidase inhibition and has biologically important meaning through inhibition of gout and formation of free radicals. The superoxide radical scavenging effects of 10, 20, 40, 80, 160, 320, and 640 μg mL-1 of each fraction extract of the Fomes fomentarius were compared using butylated hydroxy anisole (BHA) as a positive control group.
The superoxide radical scavenging effects of 10, 20, 40, 80, 160, 320, and 640 μg mL-1 of the Acer tegmentosum maxim extract were compared using butylated hydroxy anisole (BHA) as a positive control group.
The superoxide radical scavenging effects of 10, 20, 40, 80, 160, 320, and 640 μg mL-1 of the berchemia berchemiaefolia extract were compared using butylated hydroxy anisole (BHA) as a positive control group.
The superoxide radical scavenging effects of 10, 20, 40, 80, 160, 320, and 640 μg mL-1 of the Lithospermum erythrorhizon extract were compared using butylated hydroxy anisole (BHA) as a positive control group.

Each structure is given as a SMILES string.

Chain of xanthine oxidase (P47989 whole entry, species assumed): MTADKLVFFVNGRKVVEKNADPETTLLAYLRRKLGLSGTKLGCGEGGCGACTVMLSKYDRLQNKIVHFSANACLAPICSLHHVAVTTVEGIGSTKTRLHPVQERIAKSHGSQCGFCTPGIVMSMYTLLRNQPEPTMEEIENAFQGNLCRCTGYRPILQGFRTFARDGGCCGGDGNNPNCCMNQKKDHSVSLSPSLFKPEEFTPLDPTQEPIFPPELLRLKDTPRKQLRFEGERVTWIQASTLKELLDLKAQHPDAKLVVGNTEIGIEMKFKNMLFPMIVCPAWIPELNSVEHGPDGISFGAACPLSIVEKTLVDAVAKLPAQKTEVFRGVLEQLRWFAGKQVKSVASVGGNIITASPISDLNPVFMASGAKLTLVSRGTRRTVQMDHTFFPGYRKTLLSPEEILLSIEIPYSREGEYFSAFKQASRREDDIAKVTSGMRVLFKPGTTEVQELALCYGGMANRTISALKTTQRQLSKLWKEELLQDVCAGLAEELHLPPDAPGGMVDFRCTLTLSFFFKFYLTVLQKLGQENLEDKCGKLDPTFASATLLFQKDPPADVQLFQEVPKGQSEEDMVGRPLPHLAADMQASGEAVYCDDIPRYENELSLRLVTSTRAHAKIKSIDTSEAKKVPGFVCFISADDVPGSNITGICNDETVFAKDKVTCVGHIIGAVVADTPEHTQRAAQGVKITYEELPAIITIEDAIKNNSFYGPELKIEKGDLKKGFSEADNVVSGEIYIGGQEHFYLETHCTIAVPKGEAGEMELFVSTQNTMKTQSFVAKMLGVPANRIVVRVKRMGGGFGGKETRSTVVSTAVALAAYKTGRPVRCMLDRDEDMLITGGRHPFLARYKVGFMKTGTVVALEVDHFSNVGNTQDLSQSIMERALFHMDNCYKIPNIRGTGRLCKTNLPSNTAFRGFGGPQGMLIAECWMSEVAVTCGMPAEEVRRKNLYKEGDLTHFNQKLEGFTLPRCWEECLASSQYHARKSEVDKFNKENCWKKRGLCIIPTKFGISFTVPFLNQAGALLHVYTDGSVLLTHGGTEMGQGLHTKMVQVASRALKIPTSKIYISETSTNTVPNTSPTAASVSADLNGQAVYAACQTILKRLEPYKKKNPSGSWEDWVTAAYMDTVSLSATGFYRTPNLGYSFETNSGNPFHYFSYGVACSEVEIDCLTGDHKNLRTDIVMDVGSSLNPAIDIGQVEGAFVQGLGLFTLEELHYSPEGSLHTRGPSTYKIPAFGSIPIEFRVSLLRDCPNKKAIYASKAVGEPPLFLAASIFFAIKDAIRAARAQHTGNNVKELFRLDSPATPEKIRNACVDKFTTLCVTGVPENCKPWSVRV
Chain of AChE (P22303 32-614): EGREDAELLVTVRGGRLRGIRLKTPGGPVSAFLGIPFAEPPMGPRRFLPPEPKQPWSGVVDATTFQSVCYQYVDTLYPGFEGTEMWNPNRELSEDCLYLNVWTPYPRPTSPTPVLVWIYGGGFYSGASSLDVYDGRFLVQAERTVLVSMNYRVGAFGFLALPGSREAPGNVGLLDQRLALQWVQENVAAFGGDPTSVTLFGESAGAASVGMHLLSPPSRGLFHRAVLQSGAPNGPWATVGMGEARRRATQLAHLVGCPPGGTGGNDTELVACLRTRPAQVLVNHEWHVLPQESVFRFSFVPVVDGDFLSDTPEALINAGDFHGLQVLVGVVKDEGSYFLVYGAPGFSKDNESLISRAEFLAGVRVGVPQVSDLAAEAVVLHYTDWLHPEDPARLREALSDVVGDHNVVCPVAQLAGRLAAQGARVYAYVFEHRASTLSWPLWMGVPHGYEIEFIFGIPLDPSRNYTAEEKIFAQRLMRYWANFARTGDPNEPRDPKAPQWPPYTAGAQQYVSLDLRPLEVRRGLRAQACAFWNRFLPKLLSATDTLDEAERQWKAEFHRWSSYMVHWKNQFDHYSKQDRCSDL

Turning to `CCCCCCCC/C=C\CCCCCCCCCCCCO` [docosenol, cis-13-Docosenol], the IL-1β level was 65.15±7.6 with IL-1β (5 μg/ml), 59.12±6.1 in the experiment on IL-1β (20 μg/ml), 50.55±4.2 in the experiment with IL-1β (50 μg/ml) and 48.19±5.8 in the experiment with IL-1β (100 μg/ml). In addition, the IL-6 level in the experiment on IL-6 (5 μg/ml) is 301.56±7.6; with IL-6 (20 μg/ml), 249.35±10.1; in the experiment on IL-6 (50 μg/ml), 171.68±5.5; in the experiment with IL-6 (100 μg/ml), 138.51±6.8. The inhibition at 10 µg/mL at AChE worked out at 18.1 ± 2.6%; at xanthine oxidase, 0.9 ± 0.3%. The inhibition at 20 µg/mL on AChE was found to be 23.1 ± 3.8%; at xanthine oxidase it was 2.5 ± 0.5%. Besides, the inhibition at 40 µg/mL on AChE was found to be 28.4 ± 1.9%; against xanthine oxidase it was 3.6 ± 0.7%. Besides, the inhibition at 80 µg/mL at AChE came to 35.9 ± 5.1%; on xanthine oxidase it was 5.8 ± 1.1%. Besides, the inhibition at 160 µg/mL was determined as 40.9 ± 6.8% at AChE and 7.7 ± 0.9% against xanthine oxidase. Besides, the inhibition at 320 µg/mL on AChE was determined as 55.1 ± 4.9%; at xanthine oxidase it was 9.6 ± 0.8%. Also, the inhibition at 640 µg/mL at AChE was determined as 59.6 ± 6.6%; at xanthine oxidase, 11.8 ± 1.4%.

In the case of `CCCCCCCCCCCCCCCCCC(C)=O` [nonadecanone, 2-Nonadecanone], the IL-1β level in the experiment with IL-1β (5 μg/ml) came out at 70.12±4.8; in the experiment with IL-1β (20 μg/ml), 65.56±5.1; with IL-1β (50 μg/ml), 58.11±6.5; with IL-1β (100 μg/ml), 43.66±3.4. In addition, the IL-6 level with IL-6 (5 μg/ml) was 451.25±6.9; in the experiment on IL-6 (20 μg/ml), 441.61±7.1; in the experiment with IL-6 (50 μg/ml) it was 389.64±10.1; in the experiment on IL-6 (100 μg/ml), 351.85±8.7. For the same compound, the inhibition at 10 µg/mL at AChE was 11.6 ± 1.1%; against xanthine oxidase, 4.1 ± 0.5%. Moreover, the inhibition at 20 µg/mL at AChE is 18.9 ± 0.9%; against xanthine oxidase, 6.9 ± 0.8%. Moreover, the inhibition at 40 µg/mL is 23.4 ± 2.8% at AChE and 12.3 ± 1.1% against xanthine oxidase. Besides, the inhibition at 80 µg/mL stood at 30.1 ± 1.8% on AChE and 20.5 ± 0.9% on xanthine oxidase. For the same compound, the inhibition at 160 µg/mL was determined as 35.1 ± 3.1% at AChE and 21.6 ± 0.7% at xanthine oxidase. Moreover, the inhibition at 320 µg/mL at AChE was determined as 41.5 ± 2.2%; against xanthine oxidase, 24.6 ± 1.1%. The inhibition at 640 µg/mL worked out at 41.9 ± 3.8% on AChE and 30.8 ± 1.4% against xanthine oxidase.
